Literature values, collected in patent US20250120985A1, “METHOD OF TREATING DIABETIC MACULAR EDEMA” (Oculis Operations Sàrl, priority 2023, published 2025).
In brackets after ≈: the same amount, converted by molar mass.

Conditions: 25° C.

Row | SMILES | solubility in pure water [mg/mL]
1 | OC[C@H]1O[C@@H]2O[C@H]3[C@H](O)[C@@H](O)[C@@H](O[C@H]4[C@H](O)[C@@H](O)[C@@H](O[C@H]5[C@H](O)[C@@H](O)[C@@H](O[C@H]6[C@H](O)[C@@H](O)[C@@H](O[C@H]7[C@H](O)[C@@H](O)[C@@H](O[C@H]1[C@H](O)[C@H]2O)O[C@@H]7CO)O[C@@H]6CO)O[C@@H]5CO)O[C@@H]4CO)O[C@@H]3CO [α-cyclodextrin] | 129.5 ± 0.7 (≈ 133 mM)
2 | OC[C@H]1O[C@@H]2O[C@H]3[C@H](O)[C@@H](O)[C@@H](O[C@H]4[C@H](O)[C@@H](O)[C@@H](O[C@H]5[C@H](O)[C@@H](O)[C@@H](O[C@H]6[C@H](O)[C@@H](O)[C@@H](O[C@H]7[C@H](O)[C@@H](O)[C@@H](O[C@H]8[C@H](O)[C@@H](O)[C@@H](O[C@H]9[C@H](O)[C@@H](O)[C@@H](O[C@H]1[C@H](O)[C@H]2O)O[C@@H]9CO)O[C@@H]8CO)O[C@@H]7CO)O[C@@H]6CO)O[C@@H]5CO)O[C@@H]4CO)O[C@@H]3CO [γ-cyclodextrin] | 249.2 ± 0.2 (≈ 192 mM)
